pKi: −log10 of the molar value.
How the values were obtained:
[1] = target: T1, Muscarinic acetylcholine receptor M1 (Homo sapiens, UniProt P11229); test: In vitro inhibitory activity against cloned human M1 muscarinic receptor
T1 sequence (P11229 whole entry): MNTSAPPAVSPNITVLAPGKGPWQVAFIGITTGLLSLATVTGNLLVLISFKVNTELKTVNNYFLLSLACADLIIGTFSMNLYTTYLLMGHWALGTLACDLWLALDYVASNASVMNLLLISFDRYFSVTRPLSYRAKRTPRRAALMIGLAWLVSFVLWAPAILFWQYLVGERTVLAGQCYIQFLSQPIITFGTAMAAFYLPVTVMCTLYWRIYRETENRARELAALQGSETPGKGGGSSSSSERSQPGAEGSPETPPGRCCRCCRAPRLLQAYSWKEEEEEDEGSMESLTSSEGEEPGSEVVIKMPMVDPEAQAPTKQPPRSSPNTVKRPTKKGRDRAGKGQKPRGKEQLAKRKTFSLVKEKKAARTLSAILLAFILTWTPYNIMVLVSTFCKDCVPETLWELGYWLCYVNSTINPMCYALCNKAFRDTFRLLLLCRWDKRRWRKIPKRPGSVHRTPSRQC

[2] = target: T2, Muscarinic acetylcholine receptor M2 (Homo sapiens, UniProt P08172); test: In vitro inhibitory activity against cloned human M2 muscarinic receptor
T2 sequence (P08172 whole entry): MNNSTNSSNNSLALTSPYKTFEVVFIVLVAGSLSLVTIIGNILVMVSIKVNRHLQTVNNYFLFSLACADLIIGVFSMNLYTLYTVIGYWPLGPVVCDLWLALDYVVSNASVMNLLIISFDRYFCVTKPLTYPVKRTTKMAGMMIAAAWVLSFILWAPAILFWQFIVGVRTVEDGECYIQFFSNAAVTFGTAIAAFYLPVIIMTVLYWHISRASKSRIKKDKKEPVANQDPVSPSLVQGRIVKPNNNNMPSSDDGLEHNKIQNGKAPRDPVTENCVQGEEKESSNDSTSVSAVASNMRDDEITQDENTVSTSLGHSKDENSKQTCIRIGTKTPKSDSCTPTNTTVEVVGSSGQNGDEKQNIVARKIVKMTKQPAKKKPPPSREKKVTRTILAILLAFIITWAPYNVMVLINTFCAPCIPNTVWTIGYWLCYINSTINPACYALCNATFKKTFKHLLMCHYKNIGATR

Compound	pKi [1]	pKi [2]
C[C@@H]1OC(=O)[C@H]2C=C3CCCC[C@@H]3/C(=C/CC3CCC(C)(C)N3C)[C@@H]12 (some centres not stated)	6.75	7.17
C[C@@H]1OC(=O)[C@H]2C[C@H]3CCCC[C@@H]3/C(=C/C[C@H]3CCC[C@H](C)N3C)[C@@H]12	7.18	7.88
C[C@@H]1OC(=O)[C@H]2C=C3CCCC[C@@H]3[C@@H]([C@@H]3CC4CCC(C)(C)N4O3)[C@@H]12 (some centres not stated)	< 5.85	< 5.85
CCN1C(CCC2[C@H]3[C@H](C)OC(=O)[C@H]3C[C@H]3CCCC[C@H]23)CCC1(C)C (some centres not stated)	6.09	6.35
C[C@@H]1OC(=O)[C@H]2C[C@H]3CCCC[C@@H]3C(CCC3CCC(C)(C)N3C)[C@@H]12 (some centres not stated)	6.91	7.91
C[C@@H]1OC(=O)[C@H]2C[C@H]3CCCC[C@@H]3/C(=C/CC3CCC(C)(C)N3C)[C@@H]12 (some centres not stated)	6.38	7.37
C[C@@H]1OC(=O)[C@H]2C[C@H]3CCCC[C@@H]3[C@@H](CC[C@H]3CCC[C@H](C)N3C)[C@@H]12	7.49	8.37
C[C@@H]1OC(=O)[C@H]2C[C@H]3CCCC[C@@H]3[C@@H]([C@@H](O)C[C@H]3CCC(C)(C)N3C)[C@@H]12	< 5.85	< 5.85
CCN1C(C/C=C2\[C@H]3[C@H](C)OC(=O)[C@H]3C=C3CCCC[C@@H]32)CCC1(C)C (some centres not stated)	6.19	< 5.85
C[C@@H]1OC(=O)[C@H]2C[C@H]3CCCC[C@@H]3[C@@H](/C=C/[C@@H]3CCC[C@H](C)N3)[C@@H]12	< 5.85	< 5.85
C[C@@H]1OC(=O)[C@H]2C[C@H]3CCCC[C@@H]3[C@@H](/C(O)=C/[C@H]3CCC[C@H](C)N3C)[C@@H]12	5.80	6.69
C[C@@H]1OC(=O)[C@H]2C=C3CCCC[C@@H]3/C(=C/CC3CCC(C)(C)[N+]3(C)C)[C@@H]12 (some centres not stated)	6.35	6.24
C[C@@H]1OC(=O)[C@H]2C=C3CCCC[C@@H]3[C@@H]([C@@H]3CC4CCC(C)(C)[N+]4(C)O3)[C@@H]12 (some centres not stated)	6.10	6.74
C[C@@H]1OC(=O)[C@H]2C[C@H]3CCCC[C@@H]3[C@@H](CC[C@H]3CCC[C@H](C)N3)[C@@H]12	7.17	7.80
C[C@@H]1OC(=O)[C@H]2C[C@H]3CCCC[C@@H]3[C@@H](/C=C/[C@@H]3CCC[C@H](C)N3C)[C@@H]12	< 5.85	< 5.85
C[C@@H]1OC(=O)[C@H]2C[C@H]3CCCC[C@@H]3[C@@H](/C=C/[C@H]3CCC[C@H](C)N3C)[C@@H]12 [HIMBACINE]	7.32	8.35

Source: ChEMBL document CHEMBL1137123, “Himbacine analogs as muscarinic receptor antagonists--effects of tether and heterocyclic variations” (Bioorg Med Chem Lett, 2004)
